Test results published in ChEMBL document CHEMBL1201862, “PubChem BioAssay data set” (2004).
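Interpolation was linear, between the two tested concentrations surrounding the appropriate level; five concentrations were tested over 48 hours in 96-well plates. GI50: concentration for 50% inhibition of growth.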 Active and inactive are the calls of the source. Cut-off read from the data, not from the text of the source: active = GI50 up to about 1.1 µM and inactive = higher.

Legend:
Assay in all cases: NCI tumour cell line growth inhibition, 48 h
BT-549 = tested on: BT-549
DU-145 = tested on: DU-145
MDA-MB-435 = tested on: MDA-MB-435
MDA-N = tested on: MDA-N
T47D = tested on: T47D
HL-60 = tested on: HL-60
DMS-273 = tested on: DMS-273
HOP-18 = tested on: HOP-18
RXF 631 = tested on: RXF 631

| SMILES | GI50 (BT-549) | GI50 (DU-145) | GI50 (MDA-MB-435) | GI50 (MDA-N) | GI50 (T47D) | GI50 (HL-60) | GI50 (DMS-273) | GI50 (HOP-18) | GI50 (RXF 631) |
| --- | --- | --- | --- | --- | --- | --- | --- | --- | --- |
| CCOC(=O)c1sc2nc(SC)nc(N3CCCCC3)c2c1N | > 100 µM (inactive) | > 100 µM (inactive) | > 100 µM (inactive) | > 100 µM (inactive) | > 100 µM (inactive) | – | – | – | – |
| FC(F)(Sc1nc2ccccc2[nH]1)c1nc2ccccc2o1 | 75.5 µM (inactive) | > 100 µM (inactive) | > 100 µM (inactive) | > 100 µM (inactive) | > 100 µM (inactive) | – | – | – | – |
| Sc1ncc(-c2cncc(-c3cnc(S)nc3)n2)cn1 | > 100 µM (inactive) | > 100 µM (inactive) | > 100 µM (inactive) | > 100 µM (inactive) | > 100 µM (inactive) | > 100 µM (inactive) | – | – | – |
| O=C(NC(Cc1ccc(Cl)cc1)C(=O)O)c1ccc(I)cc1 (stereo not drawn) | – | – | – | – | – | > 100 µM (inactive) | > 100 µM (inactive) | > 100 µM (inactive) | – |
| CCOC(=O)C1(C#N)C(c2ccccc2)CC(O)(c2ccc(OC)cc2)C(C(=O)c2ccc(OC)cc2)C1c1ccccc1 (stereo not drawn) | – | – | – | – | – | > 100 µM (inactive) | > 100 µM (inactive) | 15.6 µM (inactive) | – |
| Brc1cc(CCOC2CCCCO2)c(-c2sccc2CCOC2CCCCO2)s1 (stereo not drawn) | 49.7 µM (inactive) | > 100 µM (inactive) | 37.7 µM (inactive) | 40.3 µM (inactive) | > 100 µM (inactive) | 17.8 µM (inactive) | – | – | – |
| CC1CC(c2ccccc2)=Nc2ccccc2S1 (stereo not drawn) | – | – | – | – | – | 58.9 µM (inactive) | > 100 µM (inactive) | – | > 100 µM (inactive) |
| CCc1ncc(C(C)(O)c2ccccc2)n1Cc1ccccc1 (stereo not drawn) | 45.3 µM (inactive) | > 100 µM (inactive) | 22.4 µM (inactive) | – | 73.6 µM (inactive) | – | – | – | – |
| CC(C)CCNc1ncnc2[nH]ncc12 | > 100 µM (inactive) | > 100 µM (inactive) | 97.5 µM (inactive) | 64.7 µM (inactive) | 45.7 µM (inactive) | > 100 µM (inactive) | – | – | – |
| Cn1c(=O)c(Cl)c(N=[N+]=[N-])c2ccccc21 | – | > 100 µM (inactive) | – | 84.1 µM (inactive) | 64 µM (inactive) | – | – | – | – |
| O=C(Cc1ccccc1)N/N=C(/c1nc2ccc([N+](=O)[O-])cc2nc1O)C(O)c1ccccc1Cl (stereo not drawn) | – | – | – | – | – | > 100 µM (inactive) | – | > 100 µM (inactive) | – |
| CCOC(=O)CCC1(C(=O)OCC)CCCCC1=O (stereo not drawn) | – | – | – | – | – | > 100 µM (inactive) | > 100 µM (inactive) | 81.8 µM (inactive) | – |
| C=CCNC(=O)N(CCC)CCCC(NC(C)=O)C(=O)NCc1ccccc1 (stereo not drawn) | – | – | – | – | – | > 100 µM (inactive) | > 100 µM (inactive) | 16.3 µM (inactive) | > 100 µM (inactive) |
| CC(C)C1=C(O)C(=O)C2=C(C1=O)C(OC=O)C(O)C1C(C)(C)CCCC21C (stereo not drawn) | 8.36 µM (inactive) | 5.06 µM (inactive) | 2.73 µM (inactive) | 7.31 µM (inactive) | 8.24 µM (inactive) | 3.56 µM (inactive) | – | – | – |
| CCOC(=O)Cc1cc(OC)c(OC)cc1/C(Cl)=C(\CO)c1ccc(OC)c(OC)c1 | – | – | – | – | – | > 100 µM (inactive) | > 100 µM (inactive) | > 100 µM (inactive) | > 100 µM (inactive) |
| C=C(C)C1Cc2c(cc(O)c3c(=O)c4ccccc4n(C)c23)O1 (stereo not drawn) | – | – | – | – | – | 39 µM (inactive) | 31.3 µM (inactive) | 16 µM (inactive) | 37 µM (inactive) |
| CN(C)CCCNC(=S)S | > 100 µM (inactive) | > 100 µM (inactive) | > 100 µM (inactive) | > 100 µM (inactive) | – | > 100 µM (inactive) | – | – | – |
| COc1ccc(/C(C#N)=C(/N)SCc2ccccc2Cl)cc1 | – | – | – | – | – | 14.3 µM (inactive) | – | 19.5 µM (inactive) | – |
| COC(=O)C12C3C4C1C1C2C3C41C(=O)O (stereo not drawn) | – | – | – | – | – | > 100 µM (inactive) | – | > 100 µM (inactive) | > 100 µM (inactive) |
| CCC12CC[C@H](C#N)N3CCc4c(n(c5ccccc45)C(=O)C1)C32 (stereo partly drawn) | – | – | – | – | – | – | 5.14 µM (inactive) | < 0.01 µM (active) | 16.4 µM (inactive) |
| COc1cc(C2c3cc4c(cc3[C@@H](Nc3cccc(CO)c3)C3COC(=O)[C@H]23)OCO4)cc(OC)c1O (stereo partly drawn) | – | – | – | – | – | < 0.0218 µM (active) | 0.153 µM (active) | 1.1 µM (active) | – |
| Nc1ncnc2c1ncn2C1C(O)C=C(CO)C1O (stereo not drawn) | – | – | – | – | – | 467 µM (inactive) | > 625 µM (inactive) | > 625 µM (inactive) | – |
| COC1=CC(=O)[C@@]2(C)C(C)[C@H](c3ccccc3)[C@H]2C1=O (stereo partly drawn) | – | – | – | – | – | > 100 µM (inactive) | > 100 µM (inactive) | – | > 100 µM (inactive) |
| OC1(c2ccc(Cl)cc2)c2ccc3ccccc3c2C2=N[C@H]3CCCC[C@@H]3N21 (stereo partly drawn) | – | 3.39 µM (inactive) | 10.7 µM (inactive) | 10.6 µM (inactive) | 3.13 µM (inactive) | 5.69 µM (inactive) | – | – | – |
| O=c1c2cc(I)ccc2nc(-c2cccs2)n1O | 33.2 µM (inactive) | 27.7 µM (inactive) | 34.8 µM (inactive) | 51.2 µM (inactive) | 26.2 µM (inactive) | 34.3 µM (inactive) | – | – | – |
| COc1cc(C)c(CC/C(C)=C/Cc2cc(O)ccc2O)c(C)c1C [PANICEIN A HYDROQUINONE] | – | – | – | – | – | > 25 µM (inactive) | > 25 µM (inactive) | > 25 µM (inactive) | – |
